Tests used:
Test in all cases: relative viability (nuclei count vs DMSO), 5 days (fraction); higher = more cells survive
Etoposide + Foretinib = compound: COc1cc([C@@H]2c3cc4c(cc3[C@@H](O[C@@H]3O[C@@H]5CO[C@@H](C)O[C@H]5[C@H](O)[C@H]3O)[C@H]3COC(=O)[C@H]23)OCO4)cc(OC)c1O [Etoposide] + COc1cc2c(Oc3ccc(NC(=O)C4(C(=O)Nc5ccc(F)cc5)CC4)cc3F)ccnc2cc1OCCCN1CCOCC1 [Foretinib] (partner 0.25 µM)
How it was run: (§1)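 Values are medians from duplicate plates. Each reflects relative viability, defined as the nuclei count of treated wells over that of vehicle wells. Lung cancer cell lines in 1536-well plates were pin-tool dosed one day after seeding with one drug alone or with a fixed anchor-drug dose plus five library-drug doses (not always all listed) in √10 steps, then fixed, stained and imaged at 4× after 5 days.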

Etoposide + Phenformin = compound: COc1cc([C@@H]2c3cc4c(cc3[C@@H](O[C@@H]3O[C@@H]5CO[C@@H](C)O[C@H]5[C@H](O)[C@H]3O)[C@H]3COC(=O)[C@H]23)OCO4)cc(OC)c1O [Etoposide] + N=C(N)NC(=N)NCCc1ccccc1 [Phenformin] (partner 250 µM)
How it was run: as §1

Bleomycin + Pictilisib = compound: CC1=C(N=C(N=C1N)[C@H](CC(=O)N)NC[C@@H](C(=O)N)N)C(=O)N[C@@H]([C@H](C2=CN=CN2)OC3C(C(C(C(O3)CO)O)O)OC4C(C(C(C(O4)CO)O)OC(=O)N)O)C(=O)N[C@H](C)[C@H]([C@H](C)C(=O)N[C@@H]([C@@H](C)O)C(=O)NCCC5=NC(=CS5)C6=NC(=CS6)C(=O)NCCC[S+](C)C)O [Bleomycin] + CS(=O)(=O)N1CCN(Cc2cc3nc(-c4cccc5[nH]ncc45)nc(N4CCOCC4)c3s2)CC1 [Pictilisib] (partner 1 µM); conditions: main component drawn
How it was run: as §1

Etoposide + Pemetrexed = compound: COc1cc([C@@H]2c3cc4c(cc3[C@@H](O[C@@H]3O[C@@H]5CO[C@@H](C)O[C@H]5[C@H](O)[C@H]3O)[C@H]3COC(=O)[C@H]23)OCO4)cc(OC)c1O [Etoposide] + Nc1nc2[nH]cc(CCc3ccc(C(=O)N[C@@H](CCC(=O)O)C(=O)O)cc3)c2c(=O)[nH]1 [Pemetrexed] (partner 0.2 µM)
How it was run: as §1

UMC-11 was tested, and the relative viability (Etoposide + Foretinib; first compound 0.01 µM) was 1.1, the relative viability (Etoposide + Foretinib; first compound 0.03162 µM) was 1.17 and the relative viability (Etoposide + Foretinib; first compound 0.1 µM) was 0.928. The relative viability (Etoposide + Foretinib; first compound 0.3162 µM) was 0.566, the relative viability (Etoposide + Foretinib; first compound 1 µM) was 0.322 and the relative viability (Etoposide + Phenformin; first compound 0.01 µM) was 0.333. For the same cell line, the relative viability (Etoposide + Phenformin; first compound 0.03162 µM) was 0.341, the relative viability (Etoposide + Phenformin; first compound 0.1 µM) was 0.275 and the relative viability (Etoposide + Phenformin; first compound 0.3162 µM) was 0.233. The relative viability (Etoposide + Phenformin; first compound 1 µM) was 0.207, the relative viability (Bleomycin + Pictilisib; first compound 0.01 µM) was 0.842 and the relative viability (Bleomycin + Pictilisib; first compound 0.03162 µM) was 0.661. It also gave a relative viability (Bleomycin + Pictilisib; first compound 0.1 µM) of 0.827, a relative viability (Bleomycin + Pictilisib; first compound 0.3162 µM) of 0.66 and a relative viability (Bleomycin + Pictilisib; first compound 1 µM) of 0.577. The relative viability (Etoposide + Pemetrexed; first compound 0.01 µM) was 0.809, the relative viability (Etoposide + Pemetrexed; first compound 0.03162 µM) was 0.789 and the relative viability (Etoposide + Pemetrexed; first compound 0.1 µM) was 0.768. For the same cell line, the relative viability (Etoposide + Pemetrexed; first compound 0.3162 µM) was 0.53 and the relative viability (Etoposide + Pemetrexed; first compound 1 µM) was 0.313.

— the supplement of paper PMC10307832
